As a reminder, the Ki is a dissociation constant, usually derived from enzyme kinetics or from competition with a known ligand. One may read the IC20 as the concentration needed for an effect of 20%. In general, IC50 refers to the midpoint of a concentration-inhibition curve.

The target of assay [1] is Quis (quisqualate) receptor. In words: Quisqualate (QUIS) receptor binding assay ([3H]AMPA, synaptic plasma membranes). To be noted: 10 nM [3H]AMPA, 100 mM KSCN, pH 7.4, 0-4° C., 10 min; read-out: NMDA receptor binding Ki, Quis. Here is the method: (§1) Synaptic plasma membranes (SPM) were prepared as previously described Monahan, J. B. and Michel, J., "Identification and Characterization of an N-methyl-D-aspartate-specific L-[^3 H]-glutamate Recognition Site in Synaptic Plasma Membranes, J. Neurochem., 48, 1699-1708 (1987)]. The SPM were stored at a concentration of 10-15 mg/ml in 0.32M sucrose, 0.5 mM EDTA, 1 mM MgSO4, 5 mM Tris/sulfate, pH 7.4, under liquid nitrogen. The identity and purity of the subcellular fractions were confirmed by both electron microscopy and marker enzymes. Protein concentrations were determined by using a modification of the method of Lowry [Ohnishi, S. T. and Barr, J. K., "A Simplified Method of Quantitating Proteins Using the Biuret and Phenol Reagents", Anal. Biochem., 86, 193-197 (1978)]. The SPM were treated identically for the [^3 H]AMPA (QUIS), [^3 H]kainate and sodium-dependent L-[^3 H]-glumatate binding assays. The SPM were thawed at room temperature, diluted twenty-fold with 50 mM Tris/acetate, pH 7.4, incubated at 37° C. for 30 minutes, and centrifuged at 100,000 g for 15 minutes. The dilution, incubation and centrifugation were repeated a total of three times. Prior to use in the NMDA-specific L-[^3 H]-glutamate binding assay, the SPM were thawed, diluted twenty fold with 50 mM Tris/acetate (pH 7.4 containing 0.04% (v/v) Triton X-100), incubated for 30 minutes at 37° C. and centrifuged as described above. The Triton X-100 treated membranes were washed with 50 mM Tris/acetate (pH 7.4) and centrifuged at 100,000 g for 15 minutes a total of four times. The basic procedure for the receptor subclass binding assays was similar. […] Beckman MP scintillation cocktail containing 7 mL/L acetic acid was then added and the samples counted on a Beckman LS 5800 or 3801 liquid scintillation counter with automatic corrections for quenching and counting efficiency. […] Radioligand binding to the synaptic plasma membranes was analyzed using Scatchard and Hill transformations and the Ki values of the compounds determined using logit-log transformations. […]

Another assay deals with NMDA receptor. In words: NMDA receptor binding assay (NMDA-specific L-[3H]-glutamate binding, synaptic plasma membranes). The note with it: 12.5 nM L-[3H]-glutamate, pH 7.4, 0-4° C., 10 min. Here is the method: Synaptic plasma membranes (SPM) were prepared as previously described Monahan, J. B. and Michel, J., "Identification and Characterization of an N-methyl-D-aspartate-specific L-[^3 H]-glutamate Recognition Site in Synaptic Plasma Membranes, J. Neurochem., 48, 1699-1708 (1987)]. The SPM were stored at a concentration of 10-15 mg/ml in 0.32M sucrose, 0.5 mM EDTA, 1 mM MgSO4, 5 mM Tris/sulfate, pH 7.4, under liquid nitrogen. The identity and purity of the subcellular fractions were confirmed by both electron microscopy and marker enzymes. Protein concentrations were determined by using a modification of the method of Lowry [Ohnishi, S. T. and Barr, J. K., "A Simplified Method of Quantitating Proteins Using the Biuret and Phenol Reagents", Anal. Biochem., 86, 193-197 (1978)]. The SPM were treated identically for the [^3 H]AMPA (QUIS), [^3 H]kainate and sodium-dependent L-[^3 H]-glumatate binding assays. The SPM were thawed at room temperature, diluted twenty-fold with 50 mM Tris/acetate, pH 7.4, incubated at 37° C. for 30 minutes, and centrifuged at 100,000 g for 15 minutes. The dilution, incubation and centrifugation were repeated a total of three times. Prior to use in the NMDA-specific L-[^3 H]-glutamate binding assay, the SPM were thawed, diluted twenty fold with 50 mM Tris/acetate (pH 7.4 containing 0.04% (v/v) Triton X-100), incubated for 30 minutes at 37° C. and centrifuged as described above. The Triton X-100 treated membranes were washed with 50 mM Tris/acetate (pH 7.4) and centrifuged at 100,000 g for 15 minutes a total of four times. The basic procedure for the receptor subclass binding assays was similar. This general method involved adding the radioligand (12.5 nM L-[^3 H]-glutamate; 0.5 nM [^3 H]kainate or 10nM [^3 H]AMPA) to the appropriate concentration of the test compound and initiating the assay by the addition of ice cold synaptic plasma membranes (0.2-0.45 mg). The binding assays were performed in 1.5 mL centrifuge tubes with the total volume adjusted to 1.0 mL. Additions of test compounds were made in 50 mM Tris/acetate (pH 7.4) and incubations were carried out at 0°-4° C. The incubation time for each of the NMDA and the AMPA binding assays was 10 minutes, for the kainate binding assay 60 minutes and for the sodium-dependent glutamate binding assay 15 minutes. The AMPA binding assay contained 100 mM KSCN and the sodium-dependent glutamate binding assay contained 150 mM sodium acetate in addition to the previously described reagents. To terminate the incubation, the samples were centrifuged for 15 minutes at 12,000 g and 4° C. in a Beckman Microfuge 12. The supernatant was aspirated and the pelleted membranes dissolved in Beckman BTS-450 tissue solubilizer for a minimum of 6 hours at room temperature. Beckman MP scintillation cocktail containing 7 mL/L acetic acid was then added and the samples counted on a Beckman LS 5800 or 3801 liquid scintillation counter with automatic corrections for quenching and counting efficiency. Nonspecific binding was defined as the residual binding in the presence of either excess L-glutamate (0.1-0.4 mM), kainate (0.01 mM), or NMDA (0.5 mM), and was 15-25% of the total binding in the NMDA binding assay, 19-27% in the AMPA binding assay, 20-30% in the kainate binding assay and 10-15% in the sodium-dependent binding assay. Radioligand binding to the synaptic plasma membranes was analyzed using Scatchard and Hill transformations and the Ki values of the compounds determined using logit-log transformations. Calculations and regression analysis were performed using templates developed for Lotus 1, 2, 3 as previously described [Pullan, L. M. "Automated Radioligand Receptor Binding Analysis with Templates for Lotus", Computer Appln. Biosci., 3 131 (1987)]. Binding results are reported in Table II for example compounds of the invention. Included in Table II are binding data for D,L-AP7[D,L-2-amino-7-phosphonoheptanoic acid].

Another assay deals with KA (kainate) receptor. In words: Kainate (KA) receptor binding assay ([3H]kainate, synaptic plasma membranes). The note with it: 0.5 nM [3H]kainate, pH 7.4, 0-4° C., 60 min. Here is the method:
as §1, with “assays.” for “assays. The SPM were thawed at room temperature, diluted twenty-fold with 50 mM Tris/acetate, pH 7.4, incubated at 37° C. for 30 minutes, and centrifuged at 100,000 g for 15 minutes. The dilution, incubation and centrifugation were repeated a total of three times. Prior to use in the NMDA-specific L-[^3 H]-glutamate binding assay, the SPM were thawed, diluted twenty fold with 50 mM Tris/acetate (pH 7.4 containing 0.04% (v/v) Triton X-100), incubated for 30 minutes at 37° C. and centrifuged as described above. The Triton X-100 treated membranes were washed with 50 mM Tris/acetate (pH 7.4) and centrifuged at 100,000 g for 15 minutes a total of four times. The basic procedure for the receptor subclass binding assays was similar.”

The test system of a further assay is [3H]glycine binding. In words: Glycine Binding Assay ([3H]glycine, synaptic plasma membranes from rat forebrain). To be noted: 10 nM [3H]glycine, pH 7.4. Here is the method: Synaptic plasma membranes (SPM) were prepared from rat forebrain and stored as previously described [J. B. Monahan and J. Michel, J. Neurochem., 48, 1699-1708 (1987)]. Frozen membranes were thawed and diluted 1:20 with 0.04% Triton X-100 in 50 mM Tris/acetate (pH 7.4). Following incubation at 37° C. for 30 min., the SPM were collected by centrifugation at 95,000×g for 15 min. The pellet was resuspended in 50 mM Tris/acetate (pH 7.4, Triton-free) and hand-homogenized five times. The membranes were again centrifuged as above. The pellet was washed two additional times with 50 mM Tris/acetate (without homogenization) and centrifuged. The final pellet was resuspended with homogenization in 50 mM Tris/acetate. In the general receptor binding assay procedure, 10 nM [^3 H]glycine was added to the appropriate concentration of the test compounds and the assay initiated by the addition of 0.2-0.4 mg of ice cold SPM. […] Beckman MP scintillation cocktail (5 ml) containing 7 ml/liter acetic acid was then added and the samples counted on a Beckman LS 5800 liquid scintillation counter with automatic corrections for quenching and counting efficiency. […] The binding of [^3 H]glycine to the SPM was analyzed using Scatchard and Hill transformations and the Ki for other compounds was determined using logit-log analysis. […]

The subject of assay [2] is TCP (1-[1-(2-thienyl)-cyclohexyl]piperidine) binding. In words: TCP Modulation Assay ([3H]TCP binding, rat brain synaptic membranes). The note with it: 2 nM tritiated TCP, 0.05 mM L-glutamate, pH 7.4, 25° C., 60 min. Here is the method: The effect on the TCP (1-[1-(2-thienyl)-cyclohexyl]piperidine) binding was measured in rat brain synaptic membranes (SPM) prepared as previously described [J. B. Monahan & J. Michel; J. Neurochem. 48:1699-1708 (1987)]. Prior to their use in the binding assay, frozen SPM were thawed, diluted twenty fold with 50 mM Tris/acetate (pH 7.4 containing 0.04% (v/v) Triton X-100), incubated for 30 min. at 37° C. and centrifuged at 95,000×g for 15 min. The Triton X-100 treated SPM were washed with 5 mM Tris/HCl, pH 7.4 and centrifuged a total of six times. The compound of Example II was incubated at different concentrations with SPM (0.2-0.4 mg protein) and 2 nM tritiated TCP, in a total volume of 0.5 ml of 5 mM Tris/HCl buffer pH 7.4 at 25° C. for 60 min. The samples were filtered through glass fiber filters (Schleicher & Schuell #32) which have been pretreated with 0.05% (v/v) polyethylenimine, washed 4 times with 2 ml of ice-cold 5 mM Tris/HCl buffer, and then counted on a Beckman LS 5800 liquid scintillation counter with automatic corrections for quenching and counting efficiency. Inhibition of TCP binding was measured as a decrease in the binding in the presence of 0.05 mM L-glutamate. Non-specific binding was defined as the residual binding in the presence of 60 […].

For the next assay, the target named is [3H]MK-801 receptor. In words: MK-801 Modulation Assay ([3H]MK-801 binding, synaptic plasma membranes from rat forebrain). To be noted: 2.0 nM [3H]MK-801, pH 7.4, 120 min, 25° C.; decrease in specific basal binding; read-out: IC50, inhibition of [3H]MK-801 binding. Here is the method: [^3 H]MK-801 binding was performed using Triton X-100 washed synaptic plasma membranes (SPM) prepared from rat forebrain (30-45 day old, male Sprague-Dawley; Sasco, St. Charles, MO) as described previously [J. W. Thomas, W. F. Hood, J. B. Monahan, P. C. Contreras and T. L. O'Donohue, Brain Res., 442, 396-398 (1988)]. The assay was initiated by the addition of SPM (0.20-0.30 mg) to an incubation containing 2.0 nM [^3 H]MK-801 (15 Ci/mmole; New England Nuclear, Boston, MA) and various concentrations of the appropriate test compound in a total volume of 0.5 ml (all additions were made in 50mM Tris/acetate buffer, pH 7.4) and continued for 120 min at 25° C. The samples were then filtered through glass fiber filters (Schleicher and Schuell #32) which were pretreated with 0.05% (v/v) polyethylenimine. The filters were washed and the radioactivity quantitated by liquid scintillation spectrometry. Inhibition of [^3 H]MK-801 binding was measured as a decrease in specific basal binding (basal binding=2583 ±381 DPM) with nonspecific binding as the residual binding in the presence of 60 μM MK-801 (562 ±30 DPM).

Consider `NC(CCCCCP(=O)(O)O)C(=O)O` (racemic) [D,L-AP7, D,L-2-amino-7-phosphonoheptanoic acid], for which the inhibition constant (Ki) in assay [1] was over 300 µM; on NMDA receptor it was 5.4 µM.

`O=C(O)C1Cc2c(cccc2P(=O)(O)O)CN1` (single isomer, unassigned) [Ex. 14] displayed a Ki on NMDA receptor of 3.1 µM.

In the case of `O=C(O)C1Cc2c(cccc2P(=O)(O)O)CN1` (single isomer, unassigned; (+)) [Ex. 13, (+)-3-carboxy-5-phosphono-1,2,3,4-tetrahydroisoquinoline], on NMDA receptor, the affinity, expressed as Ki, was 0.9 µM.

In the case of `N[C@H](CCCCCP(=O)(O)O)C(=O)O` [D-AP7], the figures for the inhibition constant Ki (in assay [1]; at NMDA receptor) were over 300 µM and 4 µM, respectively.

With `Cl.O=C(O)C1Cc2c(cccc2P(=O)(O)O)CN1` (centres unmarked) [Ex. 2, 3-carboxy-5-phosphono-1,2,3,4-tetrahydroisoquinoline hydrochloride], the Ki in assay [1] was over 300 µM; at NMDA receptor it was 1.6 µM. Also, the “Kainate receptor binding Ki” value on KA (kainate) receptor was ~ 300 μM. Also, the “maximum inhibition of [3H]-glycine binding” value in assay [3H]glycine binding was “approximately 40%”. The IC20 in assay [3H]glycine binding (calculated, based on maximum inhibition of approximately 40%) was 1900 nM. For the same compound, the “inhibition of TCP binding” value came out at 64% in assay [2] (at 5 μM) and 91% in assay [2] (at 50 μM). In assay [3H]MK-801 receptor, the IC50 was found to be 480 nM.

With `O=C(O)C1CC2=C(CC=CC2P(=O)(O)O)CN1` (centres unmarked) [Ex. 3, 3-carboxy-5-phosphono-1,2,3,4,5,8-hexahydroisoquinoline], the affinity on NMDA receptor, expressed as Ki, was 3 µM.

`O=C(O)C1CC2=C(CCCC2P(=O)(O)O)CN1` (centres unmarked) [Ex. 4, 3-carboxy-5-phosphono-1,2,3,4,5,6,7,8-octahydroisoquinoline]: the inhibition constant (Ki) on NMDA receptor amounted to 1.2 µM.

For `O=C(O)C1CC2C(CCCC2P(=O)(O)O)CN1` (centres unmarked) [Ex. 5], the inhibition constant Ki at NMDA receptor was 1.6 µM. Further, the half-maximal inhibitory concentration (IC50) in assay [3H]MK-801 receptor turned out to be 1380 nM.

`O=C(O)C1CC2C(CCCC2P(=O)(O)O)CN1` (centres unmarked) [Ex. 6] displayed an inhibitory constant (Ki) on NMDA receptor of 11.2 µM.

Consider `O=C(O)C1CC2C(CCCC2P(=O)(O)O)CN1` (centres unmarked) [Ex. 7], for which the affinity at NMDA receptor, expressed as Ki, was 1.3 µM.

`CCOC(=O)C1Cc2c(cccc2P(=O)(O)O)CN1` (centres unmarked) [Ex. 15, 5-phosphono-3-(ethoxycarbonyl)-1,2,3,4-tetrahydroisoquinoline] registered a Ki at NMDA receptor of over 100 µM.

On NMDA receptor, `Cc1ccc2c(c1P(=O)(O)O)CC(C(=O)O)NC2` (centres unmarked) [Ex. 16] yielded a Ki of 5.9 µM.

`O=C(O)C1Cc2c(cccc2CP(=O)(O)O)CN1` (centres unmarked) [Ex. 17, 3-carboxy-5-(phosphonomethyl)-1,2,3,4-tetrahydroisoquinoline] gave an inhibition constant Ki at NMDA receptor of 18 µM.
